Laboratory results published in PubChem BioAssay AID2060888 (Molecular Pharmacology Branch, DTP, NCI, 2025).
Blank lines part the entries; values can stand above or below the molecule they belong to.

Test system: 695427-040-R-J1-PDC complex spheroid viability
Assay: Anticancer human tumor 695427-040-R-J1-PDC patient-derived colon adenocarcinoma cell line growth inhibition [RAS]
Conditions: for viability, T/C: stronger effect = lower value
How it was run: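 Agents were tested in combination matrices in half-log decrements from a top concentration at or near clinical Cmax (10 microM if undetermined). Targets were multi-cell spheroids of tumour lines plus HUVEC and MSC stromal cells.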
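Note: viability read after seven days of drug exposure.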
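Throughout, for viability, T/C: 100% = DMSO vehicle control viability.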

IC50 (curve of first compound, second compound 0.0316 µM): > 10000 nM
IC50 (curve of first compound, second compound 0.1 µM): > 10000 nM
IC50 (curve of first compound, second compound 0.316 µM): 1980 nM
IC50 (curve of first compound, second compound 1 µM): 477 nM
IC50 (curve of first compound, second compound 3.16 µM): 36.3 nM
IC50 (curve of first compound, second compound 10 µM): < 31.6 nM
Structure (SMILES): Cc1nc(N2CCC3(CC2)COC(C)C3N)c(CO)nc1Sc1ccnc(N)c1Cl (stereo unspecified) + C#Cc1c(F)ccc2cc(O)cc(-c3ncc4c(N5CC6CCC(C5)N6)nc(OCC56CCCN5CC(F)C6)nc4c3F)c12
viability, T/C (second compound 0.0316 µM, first compound 0.0316 µM): 92.3%
viability, T/C (second compound 0.0316 µM, first compound 0.1 µM): 80.5%
viability, T/C (second compound 0.0316 µM, first compound 0.316 µM): 70.7%
viability, T/C (second compound 0.0316 µM, first compound 1 µM): 75%
viability, T/C (second compound 0.0316 µM, first compound 3.16 µM): 70.5%
viability, T/C (second compound 0.0316 µM, first compound 10 µM): 51.1%
viability, T/C (second compound 0.1 µM, first compound 0.0316 µM): 89.2%
viability, T/C (second compound 0.1 µM, first compound 0.1 µM): 78.1%
viability, T/C (second compound 0.1 µM, first compound 0.316 µM): 79.2%
viability, T/C (second compound 0.1 µM, first compound 1 µM): 60.9%
viability, T/C (second compound 0.1 µM, first compound 3.16 µM): 60.2%
viability, T/C (second compound 0.1 µM, first compound 10 µM): 51.9%
viability, T/C (second compound 0.316 µM, first compound 0.0316 µM): 78.7%
viability, T/C (second compound 0.316 µM, first compound 0.1 µM): 66.2%
viability, T/C (second compound 0.316 µM, first compound 0.316 µM): 56.7%
viability, T/C (second compound 0.316 µM, first compound 1 µM): 57.1%
viability, T/C (second compound 0.316 µM, first compound 3.16 µM): 50.5%
viability, T/C (second compound 0.316 µM, first compound 10 µM): 39.2%
viability, T/C (second compound 1 µM, first compound 0.0316 µM): 65.8%
viability, T/C (second compound 1 µM, first compound 0.1 µM): 63.2%
viability, T/C (second compound 1 µM, first compound 0.316 µM): 51.2%
viability, T/C (second compound 1 µM, first compound 1 µM): 42.1%
viability, T/C (second compound 1 µM, first compound 3.16 µM): 40.4%
viability, T/C (second compound 1 µM, first compound 10 µM): 26%
viability, T/C (second compound 3.16 µM, first compound 0.0316 µM): 51.3%
viability, T/C (second compound 3.16 µM, first compound 0.1 µM): 44%
viability, T/C (second compound 3.16 µM, first compound 0.316 µM): 38.1%
viability, T/C (second compound 3.16 µM, first compound 1 µM): 32.6%
viability, T/C (second compound 3.16 µM, first compound 3.16 µM): 23.5%
viability, T/C (second compound 3.16 µM, first compound 10 µM): 16.2%
viability, T/C (second compound 10 µM, first compound 0.0316 µM): 33.2%
viability, T/C (second compound 10 µM, first compound 0.1 µM): 27.7%
viability, T/C (second compound 10 µM, first compound 0.316 µM): 27.3%
viability, T/C (second compound 10 µM, first compound 1 µM): 18.6%
viability, T/C (second compound 10 µM, first compound 3.16 µM): 15.8%
viability, T/C (second compound 10 µM, first compound 10 µM): 10.3%

IC50 (compound alone, run of 06/10/2024): 6.3 µM [middle of 8 runs]
Structure (SMILES): C#Cc1c(F)ccc2cc(O)cc(-c3ncc4c(N5CC6CCC(C5)N6)nc(OCC56CCCN5CC(F)C6)nc4c3F)c12 (stereo unspecified)
viability, T/C (compound 0.0316 µM): 99.3% [middle of 8 runs]
viability, T/C (compound 0.1 µM): 95.3% [middle of 8 runs]
viability, T/C (compound 0.316 µM): 89.5% [middle of 8 runs]
viability, T/C (compound 1 µM): 73.6% [middle of 8 runs]
viability, T/C (compound 3.16 µM): 62.1% [middle of 8 runs]
viability, T/C (compound 10 µM): 42.7% [middle of 8 runs]

IC50 (curve of first compound, second compound 0.000949 µM): > 1000 nM
IC50 (curve of first compound, second compound 0.003 µM): 524 nM
IC50 (curve of first compound, second compound 0.00949 µM): 593 nM
IC50 (curve of first compound, second compound 0.03 µM): 112 nM
IC50 (curve of first compound, second compound 0.0949 µM): < 3.16 nM
IC50 (curve of first compound, second compound 0.3 µM): < 3.16 nM
Structure (SMILES): Nc1ccn(C2OC(CO)C(O)C2(F)F)c(=O)n1 (stereo unspecified) + CCn1c(-c2cc(N3CCN(C)CC3)cnc2C(C)OC)c2c3cc(ccc31)-c1csc(n1)CC(NC(=O)C1CC1C)C(=O)N1CCCC(N1)C(=O)OCC(C)(C)C2
viability, T/C (second compound 0.000949 µM, first compound 0.00316 µM): 69.9%
viability, T/C (second compound 0.000949 µM, first compound 0.01 µM): 97.5%
viability, T/C (second compound 0.000949 µM, first compound 0.0316 µM): 81.8%
viability, T/C (second compound 0.000949 µM, first compound 0.1 µM): 69.3%
viability, T/C (second compound 0.000949 µM, first compound 0.316 µM): 67%
viability, T/C (second compound 0.000949 µM, first compound 1 µM): 54.2%
viability, T/C (second compound 0.003 µM, first compound 0.00316 µM): 109%
viability, T/C (second compound 0.003 µM, first compound 0.01 µM): 88.6%
viability, T/C (second compound 0.003 µM, first compound 0.0316 µM): 78.5%
viability, T/C (second compound 0.003 µM, first compound 0.1 µM): 66.2%
viability, T/C (second compound 0.003 µM, first compound 0.316 µM): 54.5%
viability, T/C (second compound 0.003 µM, first compound 1 µM): 44.2%
viability, T/C (second compound 0.00949 µM, first compound 0.00316 µM): 80%
viability, T/C (second compound 0.00949 µM, first compound 0.01 µM): 77.7%
viability, T/C (second compound 0.00949 µM, first compound 0.0316 µM): 60.9%
viability, T/C (second compound 0.00949 µM, first compound 0.1 µM): 58.5%
viability, T/C (second compound 0.00949 µM, first compound 0.316 µM): 57.5%
viability, T/C (second compound 0.00949 µM, first compound 1 µM): 45.3%
viability, T/C (second compound 0.03 µM, first compound 0.00316 µM): 56.4%
viability, T/C (second compound 0.03 µM, first compound 0.01 µM): 63.1%
viability, T/C (second compound 0.03 µM, first compound 0.0316 µM): 52.2%
viability, T/C (second compound 0.03 µM, first compound 0.1 µM): 47.1%
viability, T/C (second compound 0.03 µM, first compound 0.316 µM): 48.4%
viability, T/C (second compound 0.03 µM, first compound 1 µM): 37.5%
viability, T/C (second compound 0.0949 µM, first compound 0.00316 µM): 42.4%
viability, T/C (second compound 0.0949 µM, first compound 0.01 µM): 47.1%
viability, T/C (second compound 0.0949 µM, first compound 0.0316 µM): 40.6%
viability, T/C (second compound 0.0949 µM, first compound 0.1 µM): 36%
viability, T/C (second compound 0.0949 µM, first compound 0.316 µM): 25.7%
viability, T/C (second compound 0.0949 µM, first compound 1 µM): 30.1%
viability, T/C (second compound 0.3 µM, first compound 0.00316 µM): 34.5%
viability, T/C (second compound 0.3 µM, first compound 0.01 µM): 40.1%
viability, T/C (second compound 0.3 µM, first compound 0.0316 µM): 34.8%
viability, T/C (second compound 0.3 µM, first compound 0.1 µM): 33.1%
viability, T/C (second compound 0.3 µM, first compound 0.316 µM): 31.6%
viability, T/C (second compound 0.3 µM, first compound 1 µM): 26.5%
